In article PMC9177545, “3-oxo-C12:2-HSL, quorum sensing molecule from human intestinal microbiota, inhibits pro-inflammatory pathways in immune cells via bitter taste receptors” (Scientific Reports, 2022):

How the values were obtained:
RAW264.7 macrophages = test: Cytokine mRNA levels by RT-qPCR in RAW264.7 macrophages stimulated with LPS and IFNγ; assay type: cell-based, murine; conditions: 50 µM, 2 h, vs control
Method: RAW264.7 murine macrophage cells (ATCC, Manassas, Virginia, USA) were cultured between passage 12 and 25 in Dulbecco’s modified Eagle’s medium supplemented with 10% heat-inactivated fetal calf serum and 1% L-glutamine (ThermoFisher Scientific). The macrophages were seeded at 35,000 cells per well in 12-well plates (Falcon) for ELISA experiments or 110,000 cells per well in 6-well plates (Falcon) for cell lysates, upon reaching 80–90% confluence after 3-day culture. Cells were maintained at 37 °C with 5% CO2/air atmosphere and the media were changed every other day.
Cells were exposed to 3-oxo-C12:2-HSL (synthesized as previously described[17]) or DMSO 0.1% as a control for different durations depending on the experiment, in the presence of the lactonase inhibitor 2-hydroxyquinoline (100 µM, Sigma-Aldrich), in order to limit the hydrolysis of the AHL lactone ring, as described previously[17],[18].
(§1) In RAW264.7 cells, inflammation was triggered with LPS (10 ng/mL, Sigma) and IFNγ (10 U/mL, R&Dsystems) for 2 h or 6 h, depending on the experiments. PBMC were exposed to LPS (10 ng/mL) and AHL for 24 h. For TAS2R38 inhibition experiments, cells were exposed to TAS2R38 allosteric inhibitor probenecid (1 mM, Sigma) for one hour before adding AHLs and the inflammatory cocktail, without changing the media.
Total RNA was extracted from RAW264.7 cells using TRIzol (Invitrogen) according to the manufacturer's instructions. Reverse Transcription (RT) was performed with 1 μg RNA using LunaScript® RT SuperMix Kit (NewEngland Biolabs). Semi-quantitative real-time PCR was performed with the Mx3000P Stratagene system using SYBR Green (Applied Biosystems) according to the manufacturer's procedures. Cyclophilin was used as the reference gene. After amplification, Ct were determined.

RAW264.7 cells and PBMC = test: Cytotoxicity by lactate dehydrogenase release; assay type: cell-based; conditions: doses of AHL used in all experiments
Method: Release of lactate dehydrogenase into the medium was measured to assess cellular toxicity. LDH concentration was measured using the Cytotoxicity Detection Kit (Roche, Boulogne-Billancourt, France) according to the manufacturer’s instructions. The media were centrifuged 5 min at 250g to remove any cells. 50 µL of reaction mixture was added to 50 µL of media supernatant in 96-well plates. After 10 min at room temperature, 25 µL of stop solution was added. Absorbance at 490 nm was determined with a microplate spectrometer (FLUOstar Omega; BMG Labtech). Results are expressed as absorbance arbitrary units.

JAK2 = JAK2 phosphorylation by Wes capillary electrophoresis in activated RAW264.7 macrophages; assay type: cell-based, murine; conditions: 50 µM, 2 h, LPS and IFNγ stimulated
Method: as §1
RAW264.7 cells were scraped in lysis buffer (20 mM Tris- HCl, pH 7.4, 5 mM EDTA, 0.15 M NaCl, 1% Triton X-100, 0.5% sodium deoxycholate) supplemented with protease inhibitor cocktail (Complete Mini; Roche, Boulogne-Billancourt, France) and phosphatase inhibitor cocktail (PhosSTOP, Sigma-Aldrich). Protein concentrations were determined using the BC Assay (Uptima/Interchim). Wes™ analyses (capillary electrophoresis system; ProteinSimple, San Jose, CA) were performed according to the manufacturer’s recommendations, and adequate protein concentrations and antibody dilutions were determined in preliminary assays to allow optimal quantitative conditions. […] Data were analysed using Compass for SW3.1 software (ProteinSimple).

TAS2R138 = target: T1, TAS2R138 (Mus musculus, UniProt Q7TQA6); test: TAS2R38/TAS2R138 inhibition experiment: TNFα secretion of RAW264.7 cells pre-treated with probenecid; assay type: cell-based; conditions: pre-treated with 1 mM probenecid one hour, then LPS, IFNγ and AHL six hours
T1 construct: endogenous in cells; host or cells: RAW264.7 murine macrophages (ATCC)
T1 sequence (Q7TQA6 1-331): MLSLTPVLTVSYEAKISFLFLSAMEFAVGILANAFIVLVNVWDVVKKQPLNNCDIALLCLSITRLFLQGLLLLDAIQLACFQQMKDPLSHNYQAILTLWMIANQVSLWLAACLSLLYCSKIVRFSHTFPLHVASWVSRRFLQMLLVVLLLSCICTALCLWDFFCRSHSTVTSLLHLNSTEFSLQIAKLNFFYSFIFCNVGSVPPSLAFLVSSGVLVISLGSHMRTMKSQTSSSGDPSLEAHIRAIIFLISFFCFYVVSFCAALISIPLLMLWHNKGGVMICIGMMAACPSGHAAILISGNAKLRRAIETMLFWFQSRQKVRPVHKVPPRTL
Method: as §1
At the end of cell treatment, the medium was centrifuged at 300g for 5 min at 4 °C. Supernatant was frozen at − 80 °C until ELISA assays. TNFα and IL-1β ELISA kits were purchased from R&D systems and performed according to the manufacturer’s instructions. Briefly, plates were coated with a capture antibody and incubated overnight. Wells were blocked using 1% bovine serum albumin-PBS solution (Sigma), then exposed to cell supernatants at room temperature for two hours. Wells were washed and incubated with the detection antibody for an additional two hours. After thorough washing, Streptavidin-HRP solution was added for 20 min. Wells were washed, then incubated with TMB (Biolegend) solution for 20 min and the reaction was stopped using 1 M H2SO4. Absorbance was measured by a spectrometer (FLUOstar Omega; BMG Labtech) at 450 nm and the absorbance at 540 nm was subtracted.

RAW264.7 cells = test: Intracellular calcium assay (Fluo-4) in RAW264.7 cells; assay type: cell-based, murine; conditions: 1000 µM
Method: RAW264.7 cells were seeded in black, clear-bottom 96-well plates (Costar) at 20,000 cells per well. The next day, release of intracellular Ca^2+ was measured using Fluo-4 (Fluo-4 Direct Calcium Assay; Life Technologies) according to the manufacturer’s instructions. Medium was discarded and 100 µL of 1 X Fluo-4 dye was incubated at 37 °C for 1 h in 5% CO2, protected from light. Then, basal fluorescence was measured using a fluorospectrometer (FLUOstar Omega; BMG Labtech), excitation at 485 nm and emission at 520 nm. Molecules of interest were then added with an electronic pipette; thapsigargin (10 µM, Sigma) as a positive control, 3-oxo-C12:2-HSL (1000 µM) or DMSO 0.5%; with 8 replicates per conditions for every experiment. The fluorescence signal was immediately measured every 80 s for 2 h. Results are expressed as a ratio of the fluorescence x times over the basal fluorescence (F/F0).

Caco-2/TC7 = test system: Caco-2/TC7; parameters: method as in PMID 30157234; conditions: Caco-2/TC7 stimulated by IL-1β ref 17; cited from earlier work

Q: What does the source list for 3-oxo-C12:2-HSL?
A: IL-10 expression (Il10 mRNA) (RAW264.7 macrophages): strongly increased; Il1b mRNA level (RAW264.7 macrophages): reduced; Tnf mRNA level (RAW264.7 macrophages): reduced; cytotoxicity, lactate dehydrogenase release compared to the control (RAW264.7 cells and PBMC): no significant difference; phosphorylation level of JAK2 vs activated cells without AHL (JAK2): not significantly altered; anti-inflammatory effect (TNFα secretion) when TAS2R138 is inhibited (TAS2R138): abolished; slope of the calcium response curve vs control condition (RAW264.7 cells; Fluo-4 F/F0, two hours): significantly higher; intracellular calcium level compared with the control (RAW264.7 cells; basal state, Fluo-4, two hours, control DMSO 0.5%): increase; IL-8 production (Caco-2/TC7): decreased
